Results from US7112601B2, “Cycloalkyl heterocycles for treating hepatitis C virus” (priority 2003, dated 2006).

Target: T1, HCV NS5B RdRp (Hepatitis C virus genotype 1b, UniProt Q9WMX2)
T1 construct: The protein was expressed with an 18 amino acid C-terminal truncation to enhance the solubility; made in house; host or cells: E. coli BL21(DE3)
Assay: HCV NS5B RdRp enzyme inhibition assay
Type: biochemical
Conditions: not given
Experimental: HCV NS5B RdRp cloning, expression, and purification. The cDNA encoding the NS5B protein of HCV, genotype 1b, was cloned into the pET21a expression vector. The protein was expressed with an 18 amino acid C-terminal truncation to enhance the solubility. The E. coli competent cell line BL21(DE3) was used for expression of the protein. Cultures were grown at 37° C. for ˜4 hours until the cultures reached an optical density of 2.0 at 600 nm. The cultures were cooled to 20° C. and induced with 1 mM IPTG. Fresh ampicillin was added to a final concentration of 50 ug/ml and the cells were grown overnight at 20° C.
Cell pellets (3L) were lysed for purification to yield 15–24 mgs of purified NS5B. The lysis buffer consisted of 20 mM Tris-HCl, pH 7.4, 500 mM NaCl, 0.5% triton X-100, 1 mM DTT, 1 mM EDTA, 20% glycerol, 0.5 mg/ml lysozyme, 10 mM MgCl2, 15 ug/ml deoxyribonuclease I, and Complete TM protease inhibitor tablets (Roche). After addition of the lysis buffer, frozen cell pellets were resuspended using a tissue homogenizer. To reduce the viscosity of the sample, aliquots of the lysate were sonicated on ice using a microtip attached to a Branson sonicator. The sonicated lysate was centrifuged at 100,000×g for 1 hr at 4° C. and filtered through a 0.2 μm filter unit (Corning).
The protein was purified using three sequential chromatography steps: Heparin sepharose CL-6B, polyU sepharose 4B, and Hitrap SP sepharose (Pharmacia). The chromatography buffers were identical to the lysis buffer but contained no lysozyme, deoxyribonuclease I, MgCl2 or protease inhibitor and the NaCl concentration of the buffer was adjusted according to the requirements for charging the protein onto the column. Each column was eluted with a NaCl gradient which varied in length from 5–50 column volumes depending on the column type. After the final chromatography step, the resulting purity of the enzyme is >90% based on SDS-PAGE analysis. The enzyme was aliquoted and stored at −80° C.
HCV NS5B RdRp enzyme assay. HCV RdRp genotype 1b assays were run in assay buffer composed of 20 mM Tris-HCl, pH 7.5, 2.5 mM KCl, 5 mM MgCl2, 1 mM DTT, 1.6 U RNAse inhibitor (Promega N2515), in 96 well plates (Falcon 3918). All compounds were serially diluted in DMSO and diluted further in assay buffer such that the final concentration of DMSO in the assay was 2%. Compounds were serially diluted (3-fold each time) for a 7 point inhibition analysis. HCV RdRp genotype 1b enzyme was used at a final concentration of 28 nM. A polyA template was used at 28 nM, and the oligo-dT12-18 primer was used at 840 nM final concentration. Preannealed primer and template were obtained commercially (Amersham 27-787802). ^3H-UTP was used at 0.125 μCi (1 μM total UTP). Reaction was initiated by the addition of enzyme. Reactions were incubated at 30° C. for 45 min, and stopped by adding 30 ul of 20% ice cold TCA. Plates were chilled for 30 minutes and harvested onto Unifilter-96, GF/B plates (Packard, 6005177) using a Packard FilterMate Cell Harvester. The harvest plates were prewashed 3 times, 200 ul/well, with 100 mM NaPPi. Harvested filters were washed 30 times, 200 ul/well, with distilled water followed by ethanol. Filter plates were dried, and 30 ul/well microscint-20 was added. Plates were read on a Packard Top Count NXT.
The IC50 values for compounds were determined using […] different [I], combined with 7 nM enzyme, 800 ng of the template-primer polyC/oligoG12 (1:5 molar ratio), and 0.7 uM of ^3H GTP containing 1 uCi. The observed fractional activity (fa=vi/vo) was used in the equation IC50=[I]/(1/fa-1) to determine a single point IC50 value. Typically, the single point IC50 values derived from [I] that produced fractional activities in the range of 0.1 to 0.8 relative to the uninhibited control were averaged to calculate the IC50 value for each compound.

T1 sequence (Q9WMX2 2420-2992): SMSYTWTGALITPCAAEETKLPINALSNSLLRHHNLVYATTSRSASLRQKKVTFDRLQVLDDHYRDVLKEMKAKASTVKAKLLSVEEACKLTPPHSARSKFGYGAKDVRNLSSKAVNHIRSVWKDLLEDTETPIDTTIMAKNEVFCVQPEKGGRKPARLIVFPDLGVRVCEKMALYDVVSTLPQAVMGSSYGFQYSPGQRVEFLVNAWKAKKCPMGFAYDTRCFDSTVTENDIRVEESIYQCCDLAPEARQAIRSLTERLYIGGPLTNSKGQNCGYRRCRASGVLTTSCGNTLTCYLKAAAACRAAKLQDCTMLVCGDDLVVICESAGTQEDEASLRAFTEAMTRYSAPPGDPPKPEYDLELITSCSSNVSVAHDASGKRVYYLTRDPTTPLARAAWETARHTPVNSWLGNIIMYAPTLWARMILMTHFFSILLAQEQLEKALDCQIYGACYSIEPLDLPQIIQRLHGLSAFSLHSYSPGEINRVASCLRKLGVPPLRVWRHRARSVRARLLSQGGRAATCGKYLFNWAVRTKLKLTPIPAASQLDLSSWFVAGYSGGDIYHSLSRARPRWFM

Compared with `COc1ccc(-c2ccc(Cl)cc2)c(COc2ccc(-c3c(-c4ccccc4)c(/C=C/C(=O)O)nn3C3CCCCC3)cc2)c1` [Example 28], `COc1ccc(-c2ccc(Cl)cc2)c(COc2ccc(-c3nc(/C=C/C(=O)O)cn3C3CCCCC3)cc2)c1` [Example 48, (2E)-3-(2-{4-[(4′-chloro-4-methoxy-1,1′-biphenyl-2-yl)methoxy]phenyl}-1-cyclohexyl-1H-imidazol-4-yl)-2-propenoic acid] is 4.1-fold higher in IC50: 1.3 µM for the first, 5.3 µM for the second. The first is the more potent here.

`CCOC(=O)c1cc(C2CCCCC2)n(-c2ccc(OCc3ccccc3)cc2)n1` [Example 29, Ethyl 1-[4-(benzyloxy)phenyl]-5-cyclohexyl-1H-pyrazole-3-carboxylate] and `CCOC(=O)/C(C)=C/c1cc(C2CCCCC2)n(-c2ccc(OCc3ccccc3)cc2)n1` [Example 34, Ethyl (2E)-3-{1-[4-(benzyloxy)phenyl]-5-cyclohexyl-1H-pyrazol-3-yl}-2-methyl-2-propenoate] cannot be ordered by IC50: > 25 µM for the first, > 25 µM for the second.

Compared with `COC(=O)/C=C/c1cc(C2CCCCC2)n(-c2ccc(OCc3ccccc3)cc2)n1` [Example 30, Methyl (2E)-3-{1-[4-(benzyloxy)phenyl]-5-cyclohexyl-1H-pyrazol-3-yl}-2-propenoate], `O=C(O)/C=C/c1cc(C2CCCCC2)n(-c2ccc(OCc3ccccc3)cc2)n1` [Example 31, (2E)-3-{1-[4-(benzyloxy)phenyl]-5-cyclohexyl-1H-pyrazol-3-yl}-2-propenoic acid] is lower in IC50: > 25 µM for the first, 4.5 µM for the second.

Compared with `COC(=O)/C=C/c1cc(C2CCCCC2)n(-c2ccc(OCc3cc(OC)ccc3-c3ccc(Cl)cc3)cc2)n1` [Example 32, Methyl (2E)-3-(1-{4-[(4′-chloro-4-methoxy-1,1′-biphenyl-2-yl)methoxy]phenyl}-5-cyclohexyl-1H-pyrazol-3-yl)-2-propenoate], `COc1ccc(-c2ccc(Cl)cc2)c(COc2ccc(-n3nc(/C=C/C(=O)O)cc3C3CCCCC3)cc2)c1` [Example 33, (2E)-3-(1-{4-[(4′-chloro-4-methoxy-1,1′-biphenyl-2-yl)methoxy]phenyl}-5-cyclohexyl-1H-pyrazol-3-yl)-2-propenoic acid] is lower in IC50: > 25 µM for the first, 2.4 µM for the second.

First: C/C(=C\c1cc(C2CCCCC2)n(-c2ccc(OCc3ccccc3)cc2)n1)C(=O)O [Example 35, (2E)-3-{1-[4-(benzyloxy)phenyl]-5-cyclohexyl-1H-pyrazol-3-yl}-2-methyl-2-propenoic acid]
Second: O=C(O)CCc1cc(C2CCCCC2)n(-c2ccc(OCc3ccccc3)cc2)n1 [Example 41]
The IC50 of the first is higher: > 25 µM for the first, 10 µM for the second. The second is the more potent here.

`CCOC(=O)/C(C)=C/c1cc(C2CCCCC2)n(-c2ccc(OCc3cc(OC)ccc3-c3ccc(Cl)cc3)cc2)n1` [Example 36, Ethyl (2E)-3-(1-{4-[(4′-chloro-4-methoxy-1,1′-biphenyl-2-yl)methoxy]phenyl}-5-cyclohexyl-1H-pyrazol-3-yl)-2-methyl-2-propenoate] and `CCOC(=O)/C(C)=C/c1cc(C2CCCCC2)n(-c2ccc(OCc3cc(C(=O)NC)ccc3-c3ccc(Cl)cc3)cc2)n1` [Example 38] cannot be ordered by IC50: > 25 µM for the first, > 25 µM for the second.

`COC(=O)CCc1cc(C2CCCCC2)n(-c2ccc(OCc3ccccc3)cc2)n1` [Example 40, Methyl 3-{1-[4-(benzyloxy)phenyl]-5-cyclohexyl-1H-pyrazol-3-yl}propanoate] and `COC(=O)CCc1cc(C2CCCCC2)n(-c2ccc(OCc3cc(OC)ccc3-c3ccc(Cl)cc3)cc2)n1` [Example 42, Methyl 3-(1-{4-[(4′-chloro-4-methoxy-1,1′-biphenyl-2-yl)methoxy]phenyl}-5-cyclohexyl-1H-pyrazol-3-yl)propanoate] cannot be ordered by IC50: > 25 µM for the first, > 25 µM for the second.

First: COc1ccc(-c2ccc(Cl)cc2)c(COc2ccc(-n3nc(CCC(=O)O)cc3C3CCCCC3)cc2)c1 [Example 43, 3-(1-{4-[(4′-chloro-4-methoxy-1,1′-biphenyl-2-yl)methoxy]phenyl}-5-cyclohexyl-1H-pyrazol-3-yl)propanoic acid]
Second: COc1ccc(-c2ccc(Cl)cc2)c(COc2ccc(-c3nc(/C=C(\C)C(=O)O)cn3C3CCCCC3)cc2)c1 [Example 52, (2E)-3-(2-{4-[(4′-chloro-4-methoxy-1,1′-biphenyl-2-yl)methoxy]phenyl}-1-cyclohexyl-1H-imidazol-4-yl)-2-methyl-2-propenoic acid]
The IC50 of the first is 8.1-fold lower: 0.31 µM for the first, 2.5 µM for the second. The first is the more potent here.

`CC(C)(C)OC(=O)/C=C/c1cn(C2CCCCC2)c(-c2ccc(OCc3ccccc3)cc2)n1` [Example 44, tert-butyl (2E)-3-{2-[4-(benzyloxy)phenyl]-1-cyclohexyl-1H-imidazol-4-yl}-2-propenoate] and `COC(=O)/C=C/c1cn(C2CCCCC2)c(-c2ccc(OCc3ccccc3)cc2)n1` [Example 46, Methyl (2E)-3-{2-[4-(benzyloxy)phenyl]-1-cyclohexyl-1H-imidazol-4-yl}-2-propenoate] cannot be ordered by IC50: > 25 µM for the first, > 25 µM for the second.

First: O=C(O)/C=C/c1cn(C2CCCCC2)c(-c2ccc(OCc3ccccc3)cc2)n1 [Example 45, (2E)-3-{2-[4-(benzyloxy)phenyl]-1-cyclohexyl-1H-imidazol-4-yl}-2-propenoic acid]
Second: C/C(=C\c1cn(C2CCCCC2)c(-c2ccc(OCc3ccccc3)cc2)n1)C(=O)O [Example 50, (2E)-3-{2-[4-(benzyloxy)phenyl]-1-cyclohexyl-1H-imidazol-4-yl}-2-methyl-2-propenoic acid]
The IC50 of the first is 2.3-fold lower: 6.6 µM for the first, 15 µM for the second. The first is the more potent here.

`COC(=O)/C=C/c1cn(C2CCCCC2)c(-c2ccc(OCc3cc(OC)ccc3-c3ccc(Cl)cc3)cc2)n1` [Example 47, Methyl (2E)-3-(2-{4-[(4′-chloro-4-methoxy-1,1′-biphenyl-2-yl)methoxy]phenyl}-1-cyclohexyl-1H-imidazol-4-yl)-2-propenoate] and `CCOC(=O)/C(C)=C/c1cn(C2CCCCC2)c(-c2ccc(OCc3cc(OC)ccc3-c3ccc(Cl)cc3)cc2)n1` [Example 51, Ethyl (2E)-3-(2-{4-[(4′-chloro-4-methoxy-1,1′-biphenyl-2-yl)methoxy]phenyl}-1-cyclohexyl-1H-imidazol-4-yl)-2-methyl-2-propenoate] cannot be ordered by IC50: > 25 µM for the first, > 25 µM for the second.

First: CCOC(=O)/C(C)=C/c1cn(C2CCCCC2)c(-c2ccc(OCc3ccccc3)cc2)n1 [Example 49, Ethyl (2E)-3-{2-[4-(benzyloxy)phenyl]-1-cyclohexyl-1H-imidazol-4-yl}-2-methyl-2-propenoate]
Second: CNC(=O)c1ccc(-c2ccc(Cl)cc2)c(COc2ccc(-c3nc(/C=C(\C)C(=O)O)cn3C3CCCCC3)cc2)c1 [Example 54, (2E)-3-(2-{4-[(4′-chloro-4-N-methylcarbamoyl-1,1′-biphenyl-2-yl)methoxy]phenyl}-1-cyclohexyl-1H-imidazol-4-yl)-2-methyl-2-propenoic acid]
The IC50 of the first is higher: > 25 µM for the first, 1.6 µM for the second.

For `CNC(=O)c1ccc(-c2ccc(Cl)cc2)c(COc2ccc(-c3nc(/C=C(\C)C(=O)OC(C)(C)C)cn3C3CCCCC3)cc2)c1` [Example 53, Butoxy^t (2E)-3-(2-{4-[(4′-chloro-4-N-methylcarbamoyl-1,1′-biphenyl-2-yl)methoxy]phenyl}-1-cyclohexyl-1H-imidazol-4-yl)-2-methyl-2-propenoate], the IC50 was > 25 µM.

Test system: HCV
Assay: not given
Conditions: combination therapy, HCV patients (Poynard et al. Lancet 1998); cited from earlier work

In the case of alpha-interferon and ribavirin, the sustained efficacy is given as 40 % of patients.
